Results from paper PMC12085125 (Drug Design, Development and Therapy, 2025).

Experiments:
[1] = healthy male adults; cited from earlier work
[2] = tested on: tofacitinib metabolism in rat liver microsomes (enzyme not specified); experiment: Inhibition of tofacitinib metabolism in rat liver microsomes; format: in vitro ADME; conditions: probe tofacitinib
[3] = cited from earlier work
[4] = in vitro; conditions: Sprague-Dawley, rat, liver microsomes
[5] = tested on: cytochrome P450 2C19 (CYP2C19); conditions: cited from earlier work
[6] = tested on: rat liver microsomes; conditions: metabolism to M8, n=3
[7] = tested on: cytochrome P450 3A4 (CYP3A4); conditions: cited from earlier work

IC50 at 30 min [2] | SMILES | increase of AUC of tofacitinib when combined [1] | increase of Cmax of tofacitinib when combined [1] | other results
– | OC(Cn1cncn1)(Cn1cncn1)c1ccc(F)cc1F [Fluconazole] | 79% | 27% | –
1140 nM | COc1ccc2c(c1)C(=O)N(CCc1ccc(S(=O)(=O)NC(=O)NC3CCCCC3)cc1)C(=O)C2(C)C [Gliquidone] | – | – | half-life ([3]; after oral administration): approximately 1.5 hours
– | CC(=O)N1CCN(c2ccc(OCC3COC(Cn4ccnc4)(c4ccc(Cl)cc4Cl)O3)cc2)CC1 (stereo not drawn) [Ketoconazole] | 103% | 16% | –
4060 nM | CC#CCn1c(N2CCC[C@@H](N)C2)nc2c1c(=O)n(Cc1nc(C)c3ccccc3n1)c(=O)n2C [Linagliptin] | – | – | bioavailability [3]: approximately 30%
– | C[C@@H]1CCN(C(=O)CC#N)C[C@@H]1N(C)c1ncnc2[nH]ccc12 [Tofacitinib] | – | – | Km at 30 min [4]: 37.3 µM; share processed by CYP2C19 [5]: ~20%; Vmax of tofacitinib enzyme kinetics [6]: 5.482 pmol/min/mg; share processed by CYP3A4 [7]: approximately 50%
